Test results from PMC9782626, “Copper(II) Complexes of 5–Fluoro–Salicylaldehyde: Synthesis, Characterization, Antioxidant Properties, Interaction with DNA and Serum Albumins” (Molecules, 2022).

Experiment: Reduction of hydrogen peroxide
Type: biochemical
Settings: compound 0.1 mM, 10 min, pH 7.4
From the text: For the above reasons, the antioxidant ability of 5–F–saloH and Cu(II) complexes 1–5 has been evaluated via their scavenging activity towards DPPH and ABTS radicals, as well as the ability to reduce H2O2, and in comparison with that of well-known antioxidant agents such as nordihydroguaiaretic acid (NDGA), butylated hydroxytoluene (ΒHΤ), 6–hydroxy–2,5,7,8–tetramethylchromane–2–carboxylic acid (trolox) and L–ascorbic acid (these are the most commonly used standard reference antioxidant agents). The DPPH-radical assay was developed in the 1950s and this method has been used to assess the antioxidant capacity of several metal complexes. The DPPH–scavenging ability of compounds has often been related to their ability to prevent ageing, cancer and inflammation. The ability of a compound to scavenge the cationic ABTS radicals (ABTS^+●) has been considered a measure of its total antioxidant activity. Further, hydrogen peroxide has the ability to penetrate biological membranes and, although it is not very reactive itself, it can sometimes be toxic since it may give rise to hydroxyl radicals in cells. For this reason, the removal of H2O2 is very important for the protection of living systems. When a compound is incubated with H2O2 using a peroxidase assay system, the loss of H2O2 can be measured.
S1 Antioxidant activity assay
The antioxidant activity of the compounds was evaluated via their ability to scavenge in vitro free radicals such as DPPH and ABTS and to reduce H 2O2. All the experiments were carried out at least in triplicate and the standard deviation of absorbance was less than 10% of the mean.
S1.1 Determination of the reducing activity of the radical DPPH […]
S1.3 Reduction of hydrogen peroxide
The ability of the com pounds to reduce hydrogen peroxide (H2O2) was est imated according to the method descr ibed in the literature [S2]. The reaction mixture contained 20 μL of each of the tested compounds (0.1 mM) and 5 μL H2O 2 solution (40 mM) in phosphate buffer (50 mM, pH = 7.4). The absorbance was measure d at 230 nm after 10 min.
The antioxidant activity (reduction of hydrogen peroxide) of the compounds wa s […]
expressed as the percentage decrease of t he init ial H 2O2 solution (H 2O2%). L-ascor b ic ac id (or vitamin C) was use d as a standard. […]
[DNA] = [DNA] + 1 (eq. S1) […]
where [DNA] is the concentration of DNA in base pa irs, εA = Aobsd/[compound ], εf = the extinction coefficient for the free compound and ε b = the extinction coefficient for the compound in the fully bound form. Kb is given by the ratio of slope to the y intercept in plots [DNA]/(εA-εf) versus[DNA].
S2.2CT DNA -binding studie s by viscosity measurements
The interaction of compounds with DNA has been evaluated via the study of the CT DNA viscosity ([DNA] = 0.1 mΜ) in a buffer solution (150 mM NaCl and 15 mM trisodium citrate at pH 7.0) in the presence of increasing amount of complexes (up to the value of r = 0.36). The obtained data are presented as (η/η 0)1/3 versus r, where η is the viscosity of DNA in the presence of the compound, and η0 is the viscosity of DNA alone in buffer solution.
S2.3 EB -displa cement studie s
The competition of the complexes with EB was investigated by fluorescence emission spectroscopy in order to examine whether the compounds can displace EB from its DNA-EB conjugate. The CT DNA-EB complex was formed by pre-treating 20 μM EB and 26 μM CT DNA in buffer (150 mM NaCl and 15 mM trisodium citrate at pH = 7.0).
The possible displacement of EB by the compounds and su bseq uently t he ir intercalating effect was studied by the stepwise addition of a certain amount of the solution of each

Which “H2O2%, H2O2–reducing activity” value does the source give for `O=Cc1cc(F)ccc1[O-].O=Cc1cc(F)ccc1[O-].[Cu+2]` [Complex 1, [Cu(5–F–salo)2]] here?
The value was 71.61 ± 0.35%.

With `O=Cc1cc(F)ccc1[O-].[Cl-].[Cu+2].c1ccc(Nc2ccccn2)nc1` [Complex 2, [Cu(5–F–salo)(bipyam)Cl]] as the compound, how does the “H2O2%, H2O2–reducing activity” value read?
The value was 99.69 ± 0.29%.

For `CO.Cc1ccc2ccc3ccc(C)nc3c2n1.O=Cc1cc(F)ccc1[O-].[Cl-].[Cu+2]` [Complex 3, [Cu(5–F–salo)(neoc)Cl].CH3OH], which “H2O2%, H2O2–reducing activity” value is on record?
The value was 26.10 ± 0.66%.

With `O=Cc1cc(F)ccc1[O-].O=[N+]([O-])[O-].[Cu+2].c1cnc2c(c1)ccc1cccnc12` [Complex 4, [Cu(5–F–salo)(phen)(NO3)]] as the compound, how does the “H2O2%, H2O2–reducing activity” value read?
Its value is 25.90 ± 0.76%.

Which “H2O2%, H2O2–reducing activity” value does the source give for `O=Cc1cc(F)ccc1[O-].O=[N+]([O-])[O-].[Cu+2].c1ccc(-c2ccccn2)nc1` [Complex 5, [Cu(5–F–salo)(bipy)(NO3)]] here?
The value was 69.21 ± 1.10%.
